Measured values: publication PMC6346239 (ChemistryOpen, 2019)
Read-outs that look alike come from different tables or passages of the source.

Key:
[1] = target: T1, hAT1R (Homo sapiens, UniProt P30556); format: binding; conditions: read-out: % Inhibition of hAT1R at 10 μM
T1 sequence (P30556 1-359): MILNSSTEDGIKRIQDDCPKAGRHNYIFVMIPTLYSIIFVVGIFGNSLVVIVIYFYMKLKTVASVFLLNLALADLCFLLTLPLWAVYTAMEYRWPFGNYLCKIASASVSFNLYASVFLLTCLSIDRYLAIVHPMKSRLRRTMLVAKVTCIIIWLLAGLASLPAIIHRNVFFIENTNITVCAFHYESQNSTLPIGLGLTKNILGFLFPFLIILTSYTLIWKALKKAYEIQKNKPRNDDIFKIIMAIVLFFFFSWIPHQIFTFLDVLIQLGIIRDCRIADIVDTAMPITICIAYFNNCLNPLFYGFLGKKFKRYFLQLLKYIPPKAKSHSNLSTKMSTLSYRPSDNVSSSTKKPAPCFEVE

[2] = target: T2, hAT2R (Homo sapiens, UniProt P50052); format: binding
T2 sequence (P50052 1-363): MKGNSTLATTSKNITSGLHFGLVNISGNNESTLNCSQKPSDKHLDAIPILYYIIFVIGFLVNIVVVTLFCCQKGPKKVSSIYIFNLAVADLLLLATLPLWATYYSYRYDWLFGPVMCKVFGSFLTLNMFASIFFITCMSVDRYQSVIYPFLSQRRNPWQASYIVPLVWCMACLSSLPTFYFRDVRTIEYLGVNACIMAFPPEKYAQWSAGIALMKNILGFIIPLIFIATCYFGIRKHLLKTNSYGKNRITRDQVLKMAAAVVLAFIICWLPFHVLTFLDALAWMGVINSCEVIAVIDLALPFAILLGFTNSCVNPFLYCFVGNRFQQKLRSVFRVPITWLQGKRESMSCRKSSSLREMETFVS

[3] = target: T2, hAT2R; experiment: Assay 2: whole cell competition binding assay, HEK293 cells expressing AT2R
[4] = target: T1, hAT1R; experiment: Assay 2: whole cell competition binding assay, HEK293 cells expressing AT1R

inhibition at 10 µM [1] [%]	Ki [2] [nM]	SMILES	other results
1.8	–	CCCCOC(=O)NS(=O)(=O)c1sc(CC(C)C)cc1-c1ccc(OC(F)(F)F)c(Cn2ccnc2)c1 [Compound 47]	–
15	> 1500	CCCCOC(=O)NS(=O)(=O)c1sc(CC(C)C)cc1-c1cccc2c1CN(C(C)=O)C2 [Compound 83]	IC50 [2]: > 3000 nM
7.5	360	CCCCOC(=O)NS(=O)(=O)c1sc(CC(C)C)cc1-c1ccc2c(c1)CN(C(C)=O)C2 [Compound 85]	–
34	56	CCCCOC(=O)NS(=O)(=O)c1sc(CC(C)C)cc1-c1ccc2c(c1)CCN(C(C)=O)C2 [Compound 86, Butyl ((3‐(2‐acetyl‐1,2,3,4‐tetrahydroisoquinolin‐6‐yl)‐5‐isobutylthiophen‐2‐yl)sulfonyl)carbamate]	IC50 [3]: 818 nM; improvement of hAT2R affinity compared to C38 ([2]; versus C38): 5 fold; improvement of hAT2R affinity compared to amides C93 and C97 ([2]; versus C93 and C97): 2 fold; IC50 [4]: > 10000 nM
45	270	CCCCOC(=O)NS(=O)(=O)c1sc(CC(C)C)cc1-c1ccc2c(c1)CN(C(C)=O)CC2 [Compound 87]	–
7.7	870	CCOC(=O)NS(=O)(=O)c1sc(CC(C)C)cc1-c1ccc2c(c1)CN(C(C)=O)C2 [Compound 88]	–
26	1300	CCOC(=O)NS(=O)(=O)c1sc(CC(C)C)cc1-c1ccc2c(c1)CN(C(=O)OCC)C2 [Compound 89]	drop in hAT2R affinity compared to compound 86 ([2]; versus 86): 20 fold; decrease in hAT2R affinity compared to methyl carbamate 92 ([2]; versus 92): ~5 fold
1.5	1300	CCOC(=O)NS(=O)(=O)c1sc(CC(C)C)cc1-c1ccc2c(c1)CN(C)C(=O)C2 [Compound 94]	–
